Our source for the IC50 values is US12187728B2 (Raze Therapeutics, Inc., priority 2015, dated 2025).

SMILES strings stand for the structures.

In this experiment the target is T1, Human MTHFD2 (Homo sapiens, UniProt P13995).
T1 construct: residues 36-350 in Uniport ID P13995; His6 (N); made in house; host or cells: E. coli
T1 sequence (P13995 36-350): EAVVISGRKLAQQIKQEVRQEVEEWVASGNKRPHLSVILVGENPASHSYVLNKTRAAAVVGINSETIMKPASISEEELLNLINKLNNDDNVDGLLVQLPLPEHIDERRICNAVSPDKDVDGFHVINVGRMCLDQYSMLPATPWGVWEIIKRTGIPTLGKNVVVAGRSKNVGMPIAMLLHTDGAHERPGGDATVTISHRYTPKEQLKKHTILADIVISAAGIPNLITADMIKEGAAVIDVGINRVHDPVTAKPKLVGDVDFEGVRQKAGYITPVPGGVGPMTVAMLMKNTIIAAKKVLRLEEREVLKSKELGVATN
The experiment is described as follows: MTHFD2 Activity Assay (dehydrogenase activity, diaphorase/resazurin coupled fluorescence). The experiment is classed as biochemical. The note with it: inhibitory activity (IC50 and/or binding constant); 0.2 nM MTHFD2, 11 concentrations. Summed up: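 Resorufin fluorescence (ex 525, em 598 nm) reports NADH formed by the dehydrogenase via diaphorase coupling. Enzyme (0.2 nM, residues 36-350, N-His6) sat with compound 15 min before 70 μM CH2-THF and 1 mM NAD+ started a 30 min reaction. IC50s come from 4-parameter fits over 11 concentrations.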
Background: The colour change of resazurin is a common sign of viable cells or microbes.
In the case of `CC(O)C1CCC(Nc2nc3c(c(=O)n(Cc4ccc(Cl)c(Cl)c4)c(=O)n3C)n2C)C1` (stereo not shown) [Example 265, 1-(3,4-dichlorobenzyl)-8-(3-(1-hydroxyethyl)cyclopentylamino)-3,7-dimethyl-1H-purine-2,6(3H,7H)-dione], the concentration for half-maximal inhibition (IC50) (commonly the point on the concentration scale where inhibition reaches its midpoint) fell in the range of 10 to 1000 nM.

The molecule `Cn1c(N[C@H]2C[C@H](C(=O)O)C2)nc2c1c(=O)n(Cc1ccc(Cl)c(Cl)c1)c(=O)n2C` [Example 266] came in with an IC50 of 10 to 1000 nM.

For the molecule `COCC1CCC(Nc2nc3c(c(=O)n(Cc4ccc(Cl)c(Cl)c4)c(=O)n3C)n2C)C1` (stereo not shown) [Example 267, 1-(3,4-dichlorobenzyl)-8-(3-(methoxymethyl)cyclopentylamino)-3,7-dimethyl-1H-purine-2,6(3H,7H)-dione], the IC50 lay within 1000 to 5000 nM.

Molecule `Cn1c(N[C@H]2C[C@H](CO)C2)nc2c1c(=O)n(Cc1ccc(Cl)c(Cl)c1)c(=O)n2C` [Example 268] displayed an IC50 of 10 to 1000 nM.

Molecule `Cn1c(Nc2ccc(C(=O)O)cc2)nc2c1c(=O)n(Cc1ccc(Cl)c(Cl)c1)c(=O)n2C` [Example 269, 4-[[1-[(3,4-dichlorophenyl)methyl]-3,7-dimethyl-2,6-dioxo-purin-8-yl]amino]benzoic acid] came in with an IC50 of 10 to 1000 nM.

As for `Cn1c(C(O)C2CCC(C(=O)O)CC2)nc2c1c(=O)n(Cc1ccc(Cl)c(Cl)c1)c(=O)n2C` (stereo not shown) [Example 270, 4-((1-(3,4-dichlorobenzyl)-3,7-dimethyl-2,6-dioxo-2,3,6,7-tetrahydro-1H-purin-8-yl)(hydroxy)methyl)cyclohexanecarboxylic acid], the half-maximal inhibitory concentration (IC50) fell in the range of 1000 to 5000 nM.

Regarding `Cn1c(NC2CC2)nc2c1c(=O)n(Cc1ccc(Cl)c(Cl)c1)c(=O)n2C` [Example 271, 8-(cyclopropylamino)-1-[(3,4-dichlorophenyl)methyl]-3,7-dimethyl-purine-2,6-dione], the IC50 is 10 to 1000 nM.

On to `Cn1c(N[C@H]2CC[C@H](C(=O)O)CC2)nc2c1c(=O)n(Cc1ccc(Cl)c(Cl)c1)c(=O)n2C` [Example 272, (±)-trans-4-[[1-[(3,4-dichlorophenyl)methyl]-3,7-dimethyl-2,6-dioxo-purin-8-yl]amino]cyclohexanecarboxylic acid], for which the IC50 was in the range of 10 to 1000 nM.

For the molecule `COCCNc1nc2c(c(=O)n(Cc3ccc(Cl)c(Cl)c3)c(=O)n2C)n1C` [Example 273, 1-[(3,4-dichlorophenyl)methyl]-8-(2-methoxyethylamino)-3,7-dimethyl-purine-2,6-dione], the half-maximal inhibitory concentration (IC50) was 1000 to 5000 nM.

Molecule `CC(=O)Nc1nc2c(c(=O)n(Cc3ccc(Cl)c(Cl)c3)c(=O)n2C)n1C` [Example 274, N-[1-[(3,4-dichlorophenyl)methyl]-3,7-dimethyl-2,6-dioxo-purin-8-yl]acetamide] yielded an IC50 of 1000 to 5000 nM.

`Cn1c(N[C@@H]2CC[C@H](CO)C2)nc2c1c(=O)n(Cc1ccc(Cl)c(Cl)c1)c(=O)n2C` [Example 276, 1-(3,4-dichlorobenzyl)-8-((1R,3S)-3-(hydroxymethyl)cyclopentylamino)-3,7-dimethyl-1H-purine-2,6(3H,7H)-dione] gave an IC50 of 10 to 1000 nM.

As for `Cn1c(Nc2ccnc(CCC(=O)O)c2)nc2c1c(=O)n(Cc1ccc(Cl)c(Cl)c1)c(=O)n2C` [Example 277, 3-(4-(1-(3,4-dichlorobenzyl)-3,7-dimethyl-2,6-dioxo-2,3,6,7-tetrahydro-1H-purin-8-ylamino)pyridin-2-yl)propanoic acid], the IC50 was 10 to 1000 nM.

`Cn1c(NCC(F)(F)F)nc2c1c(=O)n(Cc1ccc(Cl)c(Cl)c1)c(=O)n2C` [Example 278, 1-[(3,4-dichlorophenyl)methyl]-3,7-dimethyl-8-(2,2,2-trifluoroethylamino)purine-2,6-dione] showed an IC50 of 10 to 1000 nM.

With `Cn1c(Nc2cc(CCC(=O)O)ccn2)nc2c1c(=O)n(Cc1ccc(Cl)c(Cl)c1)c(=O)n2C` [Example 281, 3-(2-(1-(3,4-dichlorobenzyl)-3,7-dimethyl-2,6-dioxo-2,3,6,7-tetrahydro-1H-purin-8-ylamino)pyridin-4-yl)propanoic acid], the IC50 was 1000 to 5000 nM.

Molecule `Cn1c(Nc2cccc(CCC(=O)O)n2)nc2c1c(=O)n(Cc1ccc(Cl)c(Cl)c1)c(=O)n2C` [Example 282, 3-(6-(1-(3,4-dichlorobenzyl)-3,7-dimethyl-2,6-dioxo-2,3,6,7-tetrahydro-1H-purin-8-ylamino)pyridin-2-yl)propanoic acid] displayed an IC50 of 10 to 1000 nM.

`Cn1c(Nc2ccnc(CCC(N)=O)c2)nc2c1c(=O)n(Cc1ccc(Cl)c(Cl)c1)c(=O)n2C` [Example 283, 3-(4-(1-(3,4-dichlorobenzyl)-3,7-dimethyl-2,6-dioxo-2,3,6,7-tetrahydro-1H-purin-8-ylamino)pyridin-2-yl)propanamide] gave a 50% inhibitory concentration (IC50) of 10 to 1000 nM.

In the case of `Cn1c(Nc2ccncc2)nc2c1c(=O)n(Cc1cc3c(Cl)cccc3[nH]1)c(=O)n2C` [Example 285, 1-((4-chloro-1H-indol-2-yl)methyl)-3,7-dimethyl-8-(pyridin-4-ylamino)-1H-purine-2,6(3H,7H)-dione], the IC50 was 10 to 1000 nM.

The molecule `Cn1c(Nc2cccc(C(=O)O)c2)nc2c1c(=O)n(Cc1ccc(Cl)c(Cl)c1)c(=O)n2C` [Example 286, 3-((1-(3,4-dichlorobenzyl)-3,7-dimethyl-2,6-dioxo-2,3,6,7-tetrahydro-1H-purin-8-yl)amino)benzoic acid] yielded an IC50 of 10 to 1000 nM.

The molecule `Cn1c(Nc2cccc(CC(=O)O)c2)nc2c1c(=O)n(Cc1ccc(Cl)c(Cl)c1)c(=O)n2C` [Example 287, 2-(3-((1-(3,4-dichlorobenzyl)-3,7-dimethyl-2,6-dioxo-2,3,6,7-tetrahydro-1H-purin-8-yl)amino)phenyl)acetic acid] returned an IC50 of 10 to 1000 nM.

For the molecule `Cn1c(Nc2ccc(CC(=O)O)cc2)nc2c1c(=O)n(Cc1ccc(Cl)c(Cl)c1)c(=O)n2C` [Example 288, 2-(4-((1-(3,4-dichlorobenzyl)-3,7-dimethyl-2,6-dioxo-2,3,6,7-tetrahydro-1H-purin-8-yl)amino)phenyl)acetic acid], the IC50 lay in the range of 10 to 1000 nM.

`Cn1c(N[C@H]2C[C@H](C(=O)O)C2)nc2c1c(=O)n(Cc1cc3ccccc3[nH]1)c(=O)n2C` [Example 289, (1R,3R)-3-(1-((1H-indol-2-yl)methyl)-3,7-dimethyl-2,6-dioxo-2,3,6,7-tetrahydro-1H-purin-8-ylamino)cyclobutanecarboxylic acid] had an IC50 of 10 to 1000 nM.

As to `Cn1cnc2c1c(=O)n(Cc1cc3cccnc3[nH]1)c(=O)n2C` [Example 290, 1-((1H-pyrrolo[2,3-b]pyridin-2-yl)methyl)-3,7-dimethyl-1H-purine-2,6(3H,7H)-dione], the IC50 lay in the range of 5000 to 10000 nM.

For the molecule `Cn1c(Nc2cccc(CCC(=O)O)c2)nc2c1c(=O)n(Cc1ccc(Cl)c(Cl)c1)c(=O)n2C` [Example 291, 3-(3-(1-(3,4-dichlorobenzyl)-3,7-dimethyl-2,6-dioxo-2,3,6,7-tetrahydro-1H-purin-8-ylamino)phenyl)propanoic acid], the IC50 was in the range of 10 to 1000 nM.

Consider `Cn1c(Nc2cccc(CCC(N)=O)n2)nc2c1c(=O)n(Cc1ccc(Cl)c(Cl)c1)c(=O)n2C` [Example 292, 3-(6-(1-(3,4-dichlorobenzyl)-3,7-dimethyl-2,6-dioxo-2,3,6,7-tetrahydro-1H-purin-8-ylamino)pyridin-2-yl)propanamide], for which the IC50 fell in the range of 10 to 1000 nM.

Molecule `Cn1c(Nc2cccc(CCCO)n2)nc2c1c(=O)n(Cc1ccc(Cl)c(Cl)c1)c(=O)n2C` [Example 293, 1-(3,4-dichlorobenzyl)-8-(6-(3-hydroxypropyl)pyridin-2-ylamino)-3,7-dimethyl-1H-purine-2,6(3H,7H)-dione] yielded an IC50 of 10 to 1000 nM.

`Cn1c(Nc2cccc(CCC(=O)O)n2)nc2c1c(=O)n(Cc1cc3c(Cl)cccc3[nH]1)c(=O)n2C` [Example 294, 3-(6-(1-((4-chloro-1H-indol-2-yl)methyl)-3,7-dimethyl-2,6-dioxo-2,3,6,7-tetrahydro-1H-purin-8-ylamino)pyridin-2-yl)propanoic acid] gave an IC50 of 10 to 1000 nM.

Take `Cn1c(N[C@H]2C[C@H](CO)C2)nc2c1c(=O)n(Cc1cc3ccccc3[nH]1)c(=O)n2C` [Example 295, 1-((1H-indol-2-yl)methyl)-8-((1R,3R)-3-(hydroxymethyl)cyclobutylamino)-3,7-dimethyl-1H-purine-2,6(3H,7H)-dione]: the IC50 lay within 10 to 1000 nM.

Turning to `Cn1c(Nc2ccc(C(=O)O)cc2)nc2c1c(=O)n(Cc1cc3ccccc3[nH]1)c(=O)n2C` [Example 297, 4-[[1-(1H-indol-2-ylmethyl)-3,7-dimethyl-2,6-dioxo-purin-8-yl]amino]benzoic acid], the concentration for half-maximal inhibition (IC50) was in the range of 10 to 1000 nM.

`Cn1c(Nc2ccc(CO)cc2)nc2c1c(=O)n(Cc1ccc(Cl)c(Cl)c1)c(=O)n2C` [Example 298, 1-(3,4-dichlorobenzyl)-8-((4-(hydroxymethyl)phenyl)amino)-3,7-dimethyl-3,7-dihydro-1H-purine-2,6-dione] registered an IC50 of 10 to 1000 nM.

Consider `Cn1c(Nc2ccccn2)nc2c1c(=O)n(Cc1cc3c(Cl)cccc3[nH]1)c(=O)n2C` [Example 302, 1-((4-chloro-1H-indol-2-yl)methyl)-3,7-dimethyl-8-(pyridin-2-ylamino)-1H-purine-2,6(3H, 7H)-dione], for which the IC50 was in the range of 10 to 1000 nM.

Consider `Cn1c(Nc2ccnc(C(=O)O)c2)nc2c1c(=O)n(Cc1ccc(Cl)c(Cl)c1)c(=O)n2C` [Example 303, 4-(1-(3,4-dichlorobenzyl)-3,7-dimethyl-2,6-dioxo-2,3,6,7-tetrahydro-1H-purin-8-ylamino)picolinic acid], for which the IC50 fell in the range of 1000 to 5000 nM.
